Source: patent publication US4794103A, “Pharmaceutical compositions containing peptides of the cholecystokinin-cerulein group for the therapy of shock conditions and of respiratory and cardiocirculatory insufficiencies” (priority 1986, dated 1988)

Test system: female Wistar rats
Assay: Hypovolemic shock produced by bleeding in anesthetized rats, intravenous bolus of the polypeptides
Format: in vivo, rat
Conditions: for MEAN ARTERIAL PRESSURE 15-30 min. After bleeding: mean ± S.E.
Method: Intact and adrenalectomized female Wistar rats (Nossan, Correzzano, Milano, Italy) weighing 250 to 300 g were used. Following anesthetization and heparinization a common carotid artery and an iliac vein were cannulated in rats. Arterial blood pressure was recorded by means of a pressure transducer (Statham P23 Db) connected to a polygraph (Battaglia-Rangoni, Bologna, Italy). […] Hypovolemic shock was produced by intermittently withdrawing blood from the venous catheter until mean arterial pressure fell to 10-25 mm Hg. […] Following bleeding and mean blood pressure stabilization in the range of 10-25 mm Hg, animals were given intravenous bolus of the polypeptides. Control animals were intravenously injected with the same volume of saline (0.1 ml/100 g).

CCK8
No. of deaths 120 min. after treatment (5 μg/kg i.v. after bleeding, 6 rats used (saline: 12 of 12 died)): 2
MEAN ARTERIAL PRESSURE 15-30 min. After bleeding (5 μg/kg i.v. after bleeding, 6 rats, before bleeding 71.17 ± 6.07, after bleeding 11.83 ± 0.79, P < 0.05 versus value after bleeding): 26.33 ± 7.05 mm Hg
No. of deaths 120 min. after treatment (10 μg/kg i.v. after bleeding, 5 rats used (saline: 12 of 12 died)): 0
MEAN ARTERIAL PRESSURE 15-30 min. After bleeding (10 μg/kg i.v. after bleeding, 5 rats, before bleeding 68.40 ± 4.98, after bleeding 14.00 ± 1.82, P < 0.01 versus value after bleeding): 41.80 ± 3.79 mm Hg
No. of deaths 120 min. after treatment (20 μg/kg i.v. after bleeding, 5 rats used (saline: 12 of 12 died)): 0
MEAN ARTERIAL PRESSURE 15-30 min. After bleeding (20 μg/kg i.v. after bleeding, 5 rats, before bleeding 72.00 ± 4.67, after bleeding 14.40 ± 0.87, P < 0.01 versus value after bleeding): 52.40 ± 2.73 mm Hg

cerulein
No. of deaths 120 min. after treatment (20 μg/kg i.v. after bleeding, 6 rats used (saline: 12 of 12 died)): 0
MEAN ARTERIAL PRESSURE 15-30 min. After bleeding (20 μg/kg i.v. after bleeding, 6 rats, before bleeding 75.17 ± 6.62, after bleeding 12.17 ± 1.11, P < 0.01 versus value after bleeding): 54.67 ± 4.29 mm Hg
